Test results as given in patent publication US20230097883A1, “ERGOTHIONEINE PET COMPOUNDS AND METHODS OF USE THEREOF” (VANDERBILT UNIVERSITY, priority 2021, published 2023).

Legend:
[1] = tested on: glucose metabolism; assay: [18F]FDG PET imaging of glucose metabolism after ERGO treatment; format: in vivo, mouse; conditions: 6-month-old 5XFAD, ERGO 6 doses each 50 mg/Kg during 2 weeks, versus non-treated 5XFAD, n=3
Method: The brain consumes a significant amount of glucose, approximately 25% of the body's glucose. It is well known that glucose metabolism is diminished in the early onset of AD. Therefore, [^18F]FDG PET imaging to assess glucose levels could be used for AD diagnosis. For this purpose, three cohorts of age-matched mice (6-month-old, n=3 for each cohort), including WT, non-treated 5XFAD and ERGO-treated 5XFAD (6 doses, each 50 mg/Kg during the course of 2 weeks) were studied. Afterward, animals were injected with [^18F]FDG probe (15 MBq, 100 μL/mouse) and underwent […] dynamic PET scans and CT scans.
The dynamic acquisition was divided into twelve 5-second frames, four 60-second frames, five 120-second frames, three 5-min frames, and six 10-min scans. The data from all possible lines of response (LOR) were saved in the list mode raw data format. The raw data were then binned into 3D sinograms with a span of 3 and ring difference of 47. The images were reconstructed into transaxial slices (128×128×159) with voxel sizes of 0.0815×0.0815×0.0796 cm^3, using the MAP algorithm with 16 subsets, 4 iterations, and a beta of 0.0468. For anatomical co-registration, immediately following the PET scans, the mice received a CT scan in a NanoSPECT/CT (Mediso, Wash. D.C.) at an X-ray beam intensity of 90 mAs and x-ray peak voltage of 45 kVp. […]

[2] = Ex-vivo cut-and-count whole-body biodistribution of I.V.-injected [11C]ERGO in WT mice; set-up: species or system mouse; conditions: for brain concentration: after cardiac perfusion
Method: At 5 or 10 min post injection, anesthetized mice were laid on the shallow tray filled with crushed ice and the thoracic cavity was accessed using a scalpel after making […] mid-line incision from the abdominal area. After careful separation of the liver from the diaphragm, the thoracic opening was stabilized with a retractor. Perfusion was performed as we described in the past. Following removal of air bubbles, approximately 30 mL (pH7.4) of ice-cold PBS buffer is slowly injected in the left ventricle toward the ascending aorta using a 25-G syringe while the right atrium was snipped off using a curved point squeeze snip scissors to facilitate drainage of the systemic venous return. Then, 30 mL of 4% paraformaldehyde (PFA, pH 7.4) was perfused. When completed, tissues were harvested and weighed before counting using the automatic gamma counter (Hidex).
Cohorts of WT mice were injected with [^11C]ERGO probe, followed by cardiac perfusion 5 (n=5), 10 (n=5) and 30 (n=6) minutes after injection before tissues were collected for activity counting.

[3] = about 30 minutes after injection
[4] = initial value (5 minutes post I.V. injection)

SMILES | glucose levels in the brain ([18F]FDG uptake, SUV) [1] | blood concentration [2, 3] [% ID/g] | eyes concentration [2, 3] [% ID/g] | heart concentration [2, 3] [% ID/g] | kidneys concentration [2, 3] [% ID/g] | liver concentration [2, 3] [% ID/g] | small intestine concentration [2, 3] [% ID/g] | spleen concentration [2, 3] [% ID/g] | brain concentration [2, 3] [% ID/g] | blood concentration [2, 4] [% ID/g] | eyes concentration [2, 4] [% ID/g] | heart concentration [2, 4] [% ID/g] | kidneys concentration [2, 4] [% ID/g] | liver concentration [2, 4] [% ID/g] | small intestine concentration [2, 4] [% ID/g] | spleen concentration [2, 4] [% ID/g] | brain concentration [2, 4] [% ID/g]
C[N+](C)(C)[C@@H](Cc1c[nH]c(=S)[nH]1)C(=O)[O-] [ERGO, L-ergothioneine] | significantly elevated | – | – | – | – | – | – | – | – | – | – | – | – | – | – | – | –
C[N+](C)([11CH3])[C@@H](Cc1c[nH]c(=S)[nH]1)C(=O)[O-] [[^11C]ERGO] | – | 0.33 | 0.52 | 0.51 | 4.2 | 2.86 | 0.64 | 0.97 | 0.35 | 0.39 | 0.11 | 0.13 | 1.33 | 0.61 | 0.2 | 0.2 | 0.13
